Counter-ions that a name gives are not always drawn. Like-named read-outs stand apart in the source and are kept apart here.

For series [1] the following is noted: manufacturers' literature; cited from earlier work.
For series [2] the following is noted: cited from earlier work.
Another series is described as follows: PEL. As to conditions: Honeywell internal PEL. An excerpt: Table 1 and Table 2, below, list the properties of 1233zd(E) and 1234ze(E) compared to other commonly used blowing agents.
Table 3A and Table 3B list the properties of 1233zd(E) compared to some non-flammable blowing agents, such as 245fa and 141b, and various flammable blowing agents, such as methyl formate and hydrocarbons. […] Note that the global warming potential (GWP) of 1233zd(E) of less than 5 is the lowest among all blowing agents compared. Moreover, the GWP of 1233zd(E) is more than two orders of magnitude lower than that of the currently utilized 245fa, and is more than one order of magnitude lower than the present limitations in the EU F-Gas Regulation.

Take `CCC(C)C` [isopentane]: the PEL in series [1] was 600 ppm. For the same molecule, in series [2], the “LFL/UFL (Vol % in Air)” value is recorded as 1.4-8.3 Vol %.

For the molecule `CC(F)(F)Cl` [142b, 1-chloro 1,1-difluoroethane], the PEL in series [1] was 1000 ppm. Further, the “LFL/UFL (Vol % in Air)” value in series [2] is listed as 8.0-15.4 Vol %.

For `C1CCCC1` [C-C5, cyclopentane], the “LFL/UFL (Vol % in Air)” value in series [2] was 1.5-8.7 Vol %.

Regarding `COC=O` [Methyl Formate, methyl formate], in series [1], the PEL was 600 ppm. In series [2], the “LFL/UFL (Vol % in Air)” value was 5.0-23.0 Vol %.

With `FC(Cl)Cl` [compound 22, dichlorofluoromethane], the PEL in series [1] was 1000 ppm. For the same molecule, the “LFL/UFL (Vol % in Air)” value in series [2] was “None”.

Take `F/C=C/C(F)(F)F` [1234ze(E), trans-1,3,3,3-tetrafluoropropene]: the PEL in series [1] was 1000 ppm. Besides, in series [2], the “LFL/UFL (Vol % in Air)” value is on record as “None”.

As to `FC(F)CC(F)(F)F` [245fa, 1,1,1,3,3-pentafluoropropane], in series [1], the PEL is 300 ppm. Also, the “LFL/UFL (Vol % in Air)” value in series [2] was “None”.

In the case of `FC(F)(F)/C=C/Cl` [1233zd(E), trans-1-chloro-3,3,3-trifluoropropene], the PEL in “PEL” was 300^5; in series [1], 300 ppm. Moreover, the “LFL/UFL (Vol % in Air)” value in series [2] is “None”.

With `CCCCC` [normal pentane, n-pentane], the PEL in series [1] is 600 ppm. Besides, in series [2], the “LFL/UFL (Vol % in Air)” value is recorded as 1.4-8.3 Vol %.

With `CC(F)(F)CC(F)(F)F` [365mfc, 1,1,1,3,3-pentafluorobutane], the PEL in series [1] was 1000 ppm. Also, the “LFL/UFL (Vol % in Air)” value in series [2] was 3.6-13.3 Vol %.

With `CC(F)(Cl)Cl` [141b, 1,1-dichloro-1-fluoroethane], the PEL in series [1] is 500 ppm. Also, in series [2], the “LFL/UFL (Vol % in Air)” value was 7.6-17.7 Vol %.

Values taken from US20180312651A1, “FOAMS AND ARTICLES MADE FROM FOAMS CONTAINING HCFO OR HFO BLOWING AGENTS” (HONEYWELL INTERNATIONAL INC., priority 2011, published 2018).
